Key:
Bacillus Cereus = assay: Agar plate disc-diffusion, antibacterial activity by measuring inhibition zone; type: cell-based; settings: Gram positive, nutrient agar, 37° C., 48 hours
Protocol: (§1) The agar plate disc-diffusion method was applied. […] The discs were then placed onto the surface of agar plates (nutrient agar for bacteria and Sabouraud's dextrose agar for fungi) seeded with the test organism. Each plate contained 15 mL of the agar medium, previously seeded with 0.2 mL of the broth culture of each organism pregrown for 18 hours. The plates were incubated at 37° C. for 48 hours, and 72 hours for fungi. The inhibition zones was measured in mm. Discs impregnated with DMSO were used as a control, and its inhibition zone was subtracted from the tested compound actual inhibition zone.

Staphylococcus aureus = assay: as above; type: cell-based; settings: Gram positive, nutrient agar, 37° C., 48 hours
Protocol: as §1

Escherichia coli = assay: as above; type: cell-based; settings: Gram negative, nutrient agar, 37° C., 48 hours
Protocol: (§2) The agar plate disc-diffusion method was applied. Sterilized filter papers (6 mm in diameter) were wetted with 10 μL of a solution 2-(benzo[d]oxazol-2-yl)-N′-(3,5-dichlorobenzoyloxy)acetimidamide (3) to be tested, containing 10 mg/mL in DMSO, and the discs were allowed to air dry. The discs were then placed onto the surface of agar plates (nutrient agar for bacteria and Sabouraud's dextrose agar for fungi) seeded with the test organism. Each plate contained 15 mL of the agar medium, previously seeded with 0.2 mL of the broth culture of each organism pregrown for 18 hours. The plates were incubated at 37° C. for 48 hours, and 72 hours for fungi. The inhibition zones was measured in mm. Discs impregnated with DMSO were used as a control, and its inhibition zone was subtracted from the tested compound actual inhibition zone.

Pseudomonas aeruginosa = assay: as above; type: cell-based; settings: Gram negative, nutrient agar, 37° C., 48 hours
Protocol: as §2

Aspergillus flavus = assay: Agar plate disc-diffusion, antifungal activity by measuring inhibition zone; type: cell-based; settings: Sabouraud's dextrose agar, 72 hours
Protocol: as §1

[1] = test system: Chrysosporium keratinophilum; assay: as above; type: cell-based; settings: Sabouraud's dextrose agar, 72 hours
Protocol: as §1

different microbes = assay: Antimicrobial activity screen, overall statement; type: cell-based; settings: against different microbes (bacteria and fungi of Tables 1 and 2)
Protocol: as §2

[2] = A = concentration of comp. = 10,000 μL
[3] = B = concentration of comp. = 30,000 μL
[4] = C = concentration of comp. = 50,000 μL

SMILES	inhibition zone (Bacillus Cereus; [2])	inhibition zone (Bacillus Cereus; [3])	inhibition zone (Bacillus Cereus; C =)	inhibition zone (Staphylococcus aureus; [2])	inhibition zone (Staphylococcus aureus; [3])	inhibition zone (Staphylococcus aureus; [4])	inhibition zone (Escherichia coli; [2])	inhibition zone (Escherichia coli; [3])	inhibition zone (Escherichia coli; [4])	inhibition zone (Pseudomonas aeruginosa; [2])	inhibition zone (Pseudomonas aeruginosa; [3])	inhibition zone (Pseudomonas aeruginosa; C =)	inhibition zone (Aspergillus flavus; [2])	inhibition zone (Aspergillus flavus; [3])	inhibition zone (Aspergillus flavus; [4])	inhibition zone [1, 2]	inhibition zone [1, 3]	inhibition zone [1, 4]	antimicrobial activities (different microbes)	melting point
N/C(Cc1nc2ccccc2o1)=N\OC(=O)c1cc(Cl)cc(Cl)c1 [Compound 3, 2-(benzo[d]oxazol-2-yl)-N′-(3,5-dichlorobenzoyloxy)acetimidamide]	20 mm	22 mm	30 mm	19 mm	21 mm	29 mm	26 mm	34 mm	46 mm	25 mm	27 mm	43 mm	20 mm	22 mm	29 mm	27 mm	29 mm	49 mm	excellent antimicrobial activities	158 to 159 °C
O=C(O)c1cn(C2CC2)c2cc(N3CCNCC3)c(F)cc2c1=O [Cip., ciprofloxacin, reference compound]	29 mm	30 mm	42 mm	43 mm	44 mm	53 mm	30 mm	39 mm	60 mm	29 mm	30 mm	53 mm	29 mm	30 mm	42 mm	29 mm	30 mm	53 mm		

— US12060335B1, “2-(benzo[d]oxazol-2-yl)-N′-(3,5-dichlorobenzoyloxy)acetimidamide as an antimicrobial compound” (KING FAISAL UNIVERSITY, priority 2023, dated 2024)
